Laboratory results: patent publication US10562842B2, “Use of polyaminoisoprenyl derivatives in antibiotic or antiseptic treatment” (UNIVERSITE D'AIX-MARSEILLE, priority 2011, dated 2020)
In brackets after ≈: the same amount, converted by molar mass.

Legend:
Ea289 = experiment: MIC by broth dilution (intrinsic MIC); format: cell-based, Enterobacter aerogenes; conditions: Klebsiella aerogenes; Enterobacter Ea289
Experimental: (§1) Susceptibilities to antibiotics and compounds were determined in microplates by broth dilution method, as previously described. Minimal Inhibitory Concentrations (MICs) were determined with an inoculum of 10^6 CFU in 200 μL of MH broth containing two-fold serial dilutions of each drug. […] All MIC determinations were repeated at least three times in independent experiments.

Ea294 = experiment: MIC by broth dilution (intrinsic MIC); format: cell-based, Enterobacter aerogenes; conditions: Klebsiella aerogenes, read-out: intrinsic MIC, Ea294
Experimental: as §1

CM64 = experiment: MIC of antibiotics ± test compound (MIC ratio), micro-broth dilution; format: cell-based, Enterobacter aerogenes; conditions: compound at MIC/4; Example 4
Experimental: as §1
(§2) The MICs of chloramphenicol±test compounds (MIC/4) were determined by the micro-broth dilution method (9). All MIC determinations were repeated at least three times in independent experiments. The MIC ratio corresponds to the ratio of the MIC of an antibiotic alone to the MIC of the same antibiotic in the presence of the tested compound (at MIC/4).
(§3) For reminder, the MIC ratio corresponds to the ratio of the MIC of the assessed antibiotic alone to the MIC of the same antibiotic in the presence of the tested compound (at MIC/4).

Ea27 = experiment: as above; format: cell-based, Enterobacter aerogenes; conditions: compound at MIC/4; Example 4
Experimental: as §1, §2, §3

ATCC 13048 = experiment: as above; format: cell-based, Enterobacter aerogenes; conditions: compound at MIC/4; Example 4
Experimental: as §1, §2, §3

PA124 = experiment: as above; format: cell-based, Pseudomonas aeruginosa; conditions: compound at MIC/4
Experimental: as §1, §2, §3

PAO1 = experiment: as above; format: cell-based, Pseudomonas aeruginosa; conditions: compound at MIC/4
Experimental: as §1, §2, §3

[1] = system: Enterobacter aerogenes MDR Ea289; experiment: as above; format: cell-based; conditions: compound at MIC/4, Set 2
[2] = system: Enterobacter aerogenes MDR Ea289; experiment: as above; format: cell-based; conditions: compound at MIC/4
Outline: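 Chloramphenicol MICs against MDR Enterobacter aerogenes Ea289 were determined by broth microdilution in MH broth (two-fold serial dilutions), alone and with test compound at MIC/4. MIC ratio = MIC of antibiotic alone ÷ MIC with compound. Each determination was repeated in at least three independent experiments.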

BN10055 = experiment: MIC by broth dilution (intrinsic MIC); format: cell-based, Salmonella enterica; conditions: Salmonella enterica; Salmonella BN10055
Experimental: as §1

BN10055ΔacrB [3] = experiment: MIC by broth dilution (intrinsic MIC); format: cell-based, Salmonella enterica; conditions: Salmonella BN10055ΔacrB
Experimental: as §1

[4] = system: strain IV2571418 - Escherichia coli pig (resistant); experiment: MIC of antibiotics in the presence and absence of test compound, veterinary strains; format: cell-based; design: MIC for strain IV2571418, Doxycycline in the presence of test compound: unit not given beside the values; conditions: compound at the Concentration (μM) (4-50)
Experimental: (§4) For each strain and each antibiotic, the MICs were determined in the presence and in the absence of one test compound.

AB1 = experiment: MIC of antibiotics ± test compound (MIC ratio), micro-broth dilution; format: cell-based, Acinetobacter baumannii; conditions: compound at MIC/4
Experimental: as §1, §2, §3

ATCC 19606 = experiment: as above; format: cell-based, Acinetobacter baumannii; conditions: compound at MIC/4
Experimental: as §1, §2, §3

Ea289ΔacrB (Ea294) = experiment: as above; format: cell-based, Enterobacter aerogenes; conditions: compound at MIC/4; Example 4
Experimental: (§5) The Enterobacter aerogenes Ea289 strain is a Kans derivative of the MDR clinical isolate Ea27, the acrB mutant, EaEP294, was constructed from Ea289. Multidrug-resistant Salmonella enterica serovar Typhimurium DT104 strains (BN10055) was isolated from cattle in France, the isogenic acrB derivative mutant, BN10055ΔacrB, was constructed from BN10055. Strains were maintained at −80° C. in 25% (v/v) glycerol for cryoprotection. Bacteria were routinely grown in Mueller-Hinton (MH) broth at 37° C.
as §1
(§6) […] All MIC determinations were repeated at least three times in independent experiments. The MIC ratio corresponds to the ratio of the MIC of an antibiotic alone to the MIC of the same antibiotic in the presence of the tested compound (at MIC/4).
as §3

[5] = system: Salmonella Thyphimurium MDR BN10055; experiment: as above; format: cell-based, Salmonella enterica serovar Typhimurium; conditions: compound at MIC/4
Experimental: as §5, §1, §6, §3

BN10055ΔacrB [6] = experiment: as above; format: cell-based, Salmonella enterica serovar Typhimurium; conditions: compound at MIC/4; Example 4
Experimental: as §5, §1, §6, §3

AG100 = experiment: as above; format: cell-based, Escherichia coli; conditions: compound at MIC/4; Example 4
Experimental: as §1, §2, §3

[7] = system: strain IV2570060 - Escherichia coli cattle (sensible); experiment: MIC of antibiotics in the presence and absence of test compound, veterinary strains; format: cell-based; conditions: compound at the Concentration (μM) (4-50)
Experimental: as §4

[8] = system: strain IV2570533 - Escherichia coli cattle (resistant); experiment: as above; format: cell-based; conditions: compound at the Concentration (μM) (0.896-12.6)
Experimental: as §4

SMILES: CC(C)=CCC/C(C)=C/CC/C(C)=C/CNCCCN(C)CCCN [Compound 14, {3-[(3-Amino-propyl)-methyl-amino]-propyl}-((2E,6E)-3,7,11-trimethyl-dodeca-2,6,10-trienyl)-amine]
- MIC (Ea289): 31 µM (≈ 10.8 µg/mL)
- MIC (Ea294): 15 µM (≈ 5.24 µg/mL)
- MIC ratio Chloramphenicol E. aerogenes CM64 (CM64): 16
- MIC ratio Oxacillin E. aerogenes CM64 (CM64): >8
- MIC ratio Chloramphenicol E. aerogenes Ea27 (Ea27): >4
- MIC ratio Doxycycline E. aerogenes Ea27 (Ea27): 32
- MIC ratio Oxacillin E. aerogenes Ea27 (Ea27): 1
- MIC ratio Chloramphenicol E. aerogenes ATCC13048 (ATCC 13048): >32
- MIC ratio Doxycycline E. aerogenes ATCC13048 (ATCC 13048): 64
- MIC ratio Oxacillin E. aerogenes ATCC13048 (ATCC 13048): >8
- MIC ratio Cefepime Pseudomonas aeruginosa PA124 (PA124): 1
- MIC ratio Chloramphénicol Pseudomonas aeruginosa PA124 (PA124): 128
- MIC ratio Doxycycline Pseudomonas aeruginosa PA124 (PA124): >32
- MIC ratio Tetracycline Pseudomonas aeruginosa PA124 (PA124): 8
- MIC ratio Cefepime Pseudomonas aeruginosa PAO1 (PAO1): 1
- MIC ratio Doxycycline Pseudomonas aeruginosa PAO1 (PAO1): >16
- MIC ratio (*) on Ea289 Dox ([1]; doxycycline): 64
- MIC ratio (*) on Ea289 Nal ([1]; nalidixic acid): 32
- MIC ratio (*) on Ea289 Chl ([2]; chloramphenicol, Set 2): 8
- MIC ratio Chloramphenicol E. aerogenes Ea289 ([2]; Example 4): 8
- MIC ratio Doxycycline E. aerogenes Ea289 ([2]; Example 4): 64
- MIC ratio Nalidixic acid E. aerogenes Ea289 ([2]; Example 4): 32
- MIC (BN10055): 31 µM (≈ 10.8 µg/mL)
- intrinsic MIC, BN10055ΔacrB (BN10055ΔacrB [3]): 15 µM
- MIC for strain IV2571418, Doxycycline in the presence of test compound [4]: 2
- MIC for strain IV2571418, Tylosine in the presence of test compound [4]: 4
- MIC ratio Cefepime Acinetobacter baumannii AB1 (AB1): 1
- MIC ratio Chloramphénicol Acinetobacter baumannii AB1 (AB1): 16
- MIC ratio Doxycycline Acinetobacter baumannii AB1 (AB1): 2
- MIC ratio Tetracycline Acinetobacter baumannii AB1 (AB1): 4
- MIC ratio Cefepime Acinetobacter baumannii ATCC19606 (ATCC 19606): 4-8
- MIC ratio Chloramphénicol Acinetobacter baumannii ATCC19606 (ATCC 19606): 8
- MIC ratio Doxycycline Acinetobacter baumannii ATCC19606 (ATCC 19606): 1
- MIC ratio Tetracycline Acinetobacter baumannii ATCC19606 (ATCC 19606): 4
- MIC ratio Chloramphenicol E. aerogenes Ea294 (Ea289ΔacrB (Ea294)): 2
- MIC ratio Doxycycline E. aerogenes Ea294 (Ea289ΔacrB (Ea294)): 4
- MIC ratio Nalidixic acid E. aerogenes Ea294 (Ea289ΔacrB (Ea294)): 4
- MIC ratio (*) on BN10055 Chl ([5]; chloramphenicol, Set 2): 16
- MIC ratio Chloramphenicol S. enterica BN10055 ([5]; Example 4): 16
- MIC ratio Doxycycline S. enterica BN10055 ([5]; Example 4): 64
- MIC ratio Nalidixic acid S. enterica BN10055 ([5]; Example 4): 128
- MIC ratio (*) on BN10055 Dox ([5]; doxycycline, Set 2): 64
- MIC ratio (*) on BN10055 Nal ([5]; nalidixic acid, Set 2): 128
- MIC ratio Chloramphenicol S. enterica BN1005ΔacrB (BN10055ΔacrB [6]): 2
- MIC ratio Doxycycline S. enterica BN1005ΔacrB (BN10055ΔacrB [6]): 2
- MIC ratio Nalidixic acid S. enterica BN1005ΔacrB (BN10055ΔacrB [6]): 4
- MIC ratio Chloramphenicol E. Coli AG100 (AG100): 16
- MIC ratio Doxycycline E. Coli AG100 (AG100): >32
- MIC ratio Oxacillin E. Coli AG100 (AG100): 16
- MIC for strain IV2570060, Doxycycline in the presence of test compound [7]: 0.0625
- MIC for strain IV2570060, Tylosine in the presence of test compound [7]: 8
- MIC for strain IV2570533, Doxycycline in the presence of test compound [8]: 1
- MIC for strain IV2570533, Tylosine in the presence of test compound [8]: 8
